From US8217035B2, “Pyrimidine derivatives used as PI-3-kinase inhibitors” (Novartis AG, priority 2006, dated 2012)
Like-named read-outs stand apart in the source and are kept apart here.

Key:
[1] = target: PI3 kinase alpha (Homo sapiens, UniProt P42336); test: PI3K ATP depletion assay (Biological Method 1, Assay 3; KinaseGlo luminescence); assay type: biochemical; details: ATP depletion assay, read-out: PI3 Kinase Alpha, IC50
Method: The PI3 kinase alpha IC50 values shown in Table 1 were determined according to the ATP depletion assay as disclosed herein in Biological Method 1.
Assay 3: ATP Depletion Assay
Compounds to be tested are dissolved in DMSO and directly distributed into a black 384-well plate at 1.25 μL per well. To start the reaction, 25 μL of 10 nM PI3 kinase and 5 μg/mL 1-alpha-phosphatidylinositol (PI) are added into each well followed by 25 μL of 2 μM ATP. The reaction is performed until approx 50% of the ATP is depleted, and then stopped by the addition of 25 μL of KinaseGlo solution purchased from Promega. The stopped reaction is incubated for 5 minutes and the remaining ATP is then detected via luminescence.

[2] = system: A2780 ovarian cancer cells; test: Cellular proliferation in A2780 cells, Cell Titer Glo (Biological Method 4); assay type: cell-based; details: Homo sapiens
Method: In addition, many of the compounds of Table 1 were tested to determine their inhibitory activity in a cellular proliferation assay according to Biological Method 4.
The ability of the compounds of the invention to inhibit cellular proliferation were determined by using Cell Titer Glo, a commercially available assay from Promega Corporation. A2780 ovarian cancer cells were seeded in TC treated 96-well plates at a density of 1,000 per well in DMEM, 10% FBS, 1% Sodium Pyruvate, and 1% Penicillin Streptomycin for a minimum of 2 hrs prior to addition of compound. For each concentration of test compound, 2 μl (500×) aliquots of compound or 100% DMSO diluted in 500 μl of culture medium for 2× concentration then diluted 1× on the Cells. Cells were incubated for 72 hrs at 37° C., 5% CO2. After the 72 hour incubation, Cell Titer Glo reagent is added to determine number of viable cells remaining after exposure to the compound, and the EC50 value was calculated. The assay was performed according to the manufacturer's instruction (Promega Corporation, Madison, Wis. USA). Each experimental condition was performed in duplicate.

[3] = ovarian cancer cell line A2780, Biological Method 4

Chain of PI3 kinase alpha (P42336 whole entry): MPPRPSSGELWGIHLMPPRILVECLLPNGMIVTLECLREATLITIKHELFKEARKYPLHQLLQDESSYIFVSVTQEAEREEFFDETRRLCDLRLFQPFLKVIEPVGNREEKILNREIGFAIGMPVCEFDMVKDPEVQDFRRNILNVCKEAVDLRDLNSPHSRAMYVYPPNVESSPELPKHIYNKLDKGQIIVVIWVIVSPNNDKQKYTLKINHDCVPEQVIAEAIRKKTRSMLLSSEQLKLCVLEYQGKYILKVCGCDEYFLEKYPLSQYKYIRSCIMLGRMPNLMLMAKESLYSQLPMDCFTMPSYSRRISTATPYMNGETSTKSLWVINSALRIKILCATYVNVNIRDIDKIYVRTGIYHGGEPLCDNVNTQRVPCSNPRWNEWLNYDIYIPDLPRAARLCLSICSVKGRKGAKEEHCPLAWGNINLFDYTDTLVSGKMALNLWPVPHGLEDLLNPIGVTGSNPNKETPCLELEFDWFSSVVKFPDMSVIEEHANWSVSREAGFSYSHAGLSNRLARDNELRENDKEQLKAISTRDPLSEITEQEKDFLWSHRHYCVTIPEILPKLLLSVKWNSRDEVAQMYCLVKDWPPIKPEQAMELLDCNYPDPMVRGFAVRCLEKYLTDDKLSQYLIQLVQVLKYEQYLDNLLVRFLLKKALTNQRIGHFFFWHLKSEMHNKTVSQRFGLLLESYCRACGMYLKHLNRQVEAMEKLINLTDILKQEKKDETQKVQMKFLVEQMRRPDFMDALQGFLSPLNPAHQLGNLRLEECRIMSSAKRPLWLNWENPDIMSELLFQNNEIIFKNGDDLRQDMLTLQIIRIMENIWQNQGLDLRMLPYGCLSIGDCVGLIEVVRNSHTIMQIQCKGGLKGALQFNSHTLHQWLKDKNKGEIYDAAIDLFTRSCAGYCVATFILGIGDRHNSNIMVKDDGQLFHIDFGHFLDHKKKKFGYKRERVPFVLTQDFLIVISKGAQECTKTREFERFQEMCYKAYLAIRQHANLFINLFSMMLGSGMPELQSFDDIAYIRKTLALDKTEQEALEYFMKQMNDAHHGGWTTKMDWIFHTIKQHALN
Chain of PI3 kinase alpha (P27986 whole entry partner): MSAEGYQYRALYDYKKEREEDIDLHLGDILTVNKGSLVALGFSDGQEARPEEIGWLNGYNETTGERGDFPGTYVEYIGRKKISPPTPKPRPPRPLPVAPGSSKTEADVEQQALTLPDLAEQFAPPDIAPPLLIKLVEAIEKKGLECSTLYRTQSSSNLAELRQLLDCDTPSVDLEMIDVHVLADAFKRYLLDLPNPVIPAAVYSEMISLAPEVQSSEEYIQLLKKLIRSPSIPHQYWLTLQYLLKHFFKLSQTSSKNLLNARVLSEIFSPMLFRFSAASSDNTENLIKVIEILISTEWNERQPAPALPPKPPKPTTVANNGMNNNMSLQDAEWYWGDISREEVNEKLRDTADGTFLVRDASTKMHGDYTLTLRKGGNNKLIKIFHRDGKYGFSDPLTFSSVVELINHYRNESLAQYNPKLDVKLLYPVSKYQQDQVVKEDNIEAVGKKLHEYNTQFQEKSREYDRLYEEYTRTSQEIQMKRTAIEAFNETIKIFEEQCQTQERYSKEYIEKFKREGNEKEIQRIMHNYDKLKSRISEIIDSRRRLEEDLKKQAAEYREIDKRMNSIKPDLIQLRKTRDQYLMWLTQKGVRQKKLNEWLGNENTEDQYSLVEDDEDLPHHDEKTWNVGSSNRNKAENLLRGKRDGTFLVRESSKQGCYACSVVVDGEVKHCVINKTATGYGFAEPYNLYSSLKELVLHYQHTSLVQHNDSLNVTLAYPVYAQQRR

| SMILES | IC50 [1] | IC50 ([1]; Biological Method 1) | further results |
| --- | --- | --- | --- |
| C[C@@H]1CN(c2cc(-c3cnc(N)cc3C(F)(F)F)nc(N3CCOCC3)n2)C[C@H](C)O1 [Compound 327] | – | < 1000 nM | EC50 [2, 3]: < 10000 nM |
| Nc1ncc(-c2cc(N3CCCC3)nc(N3CCOCC3)n2)cn1 [Compound 399] | < 1000 nM | – | EC50 ([2]; ovarian cancer cell line A2780): < 10000 nM |
| Nc1cc(C(F)(F)F)c(-c2cc(N3CCC(O)CC3)nc(N3CCOCC3)n2)cn1 [Compound 323] | – | < 1000 nM | EC50 [2, 3]: < 25000 nM |
| Nc1ncc(-c2cc(C(=O)N3CCCCC3)nc(N3CCOCC3)n2)cn1 [Compound 234] | – | < 1000 nM | EC50 [2, 3]: < 25000 nM |
| Nc1ccc(-c2cc(Nc3ccc(OC(CO)CO)nc3)nc(N3CCOCC3)n2)cn1 [Compound 271] | – | < 1000 nM | EC50 [2, 3]: < 25000 nM |
| Nc1ccc(-c2cc(Nc3ccc(F)cc3)nc(N3CCOCC3)n2)cn1 [Compound 305] | – | < 1000 nM | EC50 [2, 3]: < 10000 nM |
| Nc1ncc(-c2cc(Nc3ccc4c(c3)NC(=O)CO4)nc(N3CCOCC3)n2)cn1 [Compound 413] | < 1000 nM | – | EC50 ([2]; ovarian cancer cell line A2780): < 10000 nM |
| Nc1cc(C(F)(F)F)c(-c2cc(N3CCOC(c4cccnc4)C3)nc(N3CCOCC3)n2)cn1 (stereo not drawn) [Compound 338] | – | < 1000 nM | EC50 [2, 3]: < 10000 nM |
| Nc1cc(Cl)c(-c2cc(Nc3ccncc3C(F)(F)F)nc(N3CCOCC3)n2)cn1 [Compound 219] | – | < 1000 nM | EC50 [2, 3]: < 10000 nM |
| COc1cncc(-c2cc(-c3ccc(N)nc3)nc(N3CCOCC3)n2)c1 [Compound 275] | – | < 1000 nM | EC50 [2, 3]: < 1000 nM |
| Cc1c(-c2cnc(N)nc2)nc(N2CCOCC2)nc1-c1cncc(OCCN(C)C)c1 [Compound 270] | – | < 1000 nM | EC50 [2, 3]: < 25000 nM |
| CNC(=O)c1cc(-c2cnc(N)nc2)nc(N2CCOCC2)n1 [Compound 232] | – | < 1000 nM | EC50 [2, 3]: < 25000 nM |
| Nc1ncc(-c2cc(Nc3cnc4ccccc4c3)nc(N3CCOCC3)n2)c(=O)[nH]1 [Compound 470] | – | – | EC50 ([2]; ovarian cancer cell line A2780): < 10000 nM |
| Nc1ccc(-c2cc(N3CCOCC3)nc(N3CCOCC3)n2)c(F)n1 [Compound 550] | – | – | EC50 ([2]; ovarian cancer cell line A2780): < 10000 nM |
| CN(c1cc(-c2ccc(N)nc2)nc(N2CCOCC2)n1)C1CCCCC1 [Compound 372] | – | < 10000 nM | – |
| Nc1ccc(-c2cc(Sc3nc[nH]n3)nc(N3CCOCC3)n2)cn1 [Compound 292] | – | < 10000 nM | – |
| Nc1ccc(-c2cc(-c3ccc(F)nc3)nc(N3CCOCC3)n2)cn1 [Compound 228] | – | < 1000 nM | – |
| Nc1ncc(-c2cc(Nc3cnc4ccccc4c3)nc(N3CCOCC3)n2)cc1S(N)(=O)=O [Compound 222] | – | < 10000 nM | – |
| CC(=O)Nc1cnc(N2CCOCC2)nc1-c1ccc(N)nc1 [Compound 257] | – | < 10000 nM | – |

| SMILES | IC50 [1] | IC50 ([1]; Biological Method 1) | further results |
| --- | --- | --- | --- |
| Nc1ccc(-c2cc(Nc3cccc4c3OCCO4)nc(N3CCOCC3)n2)cn1 [Compound 389] | – | < 1000 nM | – |
| CN1CCC(Oc2ccc(-c3cc(-c4ccc(N)nc4)nc(N4CCOCC4)n3)cn2)CC1 [Compound 226] | – | < 1000 nM | – |
| Nc1ccc(-c2cc(C(=O)N3CCNCC3)nc(N3CCOCC3)n2)cn1 [Compound 224] | – | < 10000 nM | – |
| CS(=O)(=O)c1ccccc1Nc1cc(-c2cnc(N)cc2C(F)(F)F)nc(N2CCOCC2)n1 [Compound 240] | – | < 1000 nM | – |
| Cc1cc(-c2cc(Nc3cnc4ccccc4c3)nc(N3CCOCC3)n2)cnc1N [Compound 365] | – | < 10000 nM | – |
| N#Cc1cnc(Nc2cc(-c3cnc(N)nc3C(F)(F)F)nc(N3CCOCC3)n2)s1 [Compound 545] | – | – | EC50 ([2]; ovarian cancer cell line A2780): < 25000 nM |
| Nc1ccc(-c2cc(N3CCc4ccccc4C3)nc(N3CCOCC3)n2)cn1 [Compound 375] | – | < 1000 nM | – |
| CC(C)(C)OC(=O)N1CCC[C@@H](Oc2cc(-c3cnc(N)cc3C(F)(F)F)nc(N3CCOCC3)n2)C1 [Compound 21] | < 1000 nM | – | – |
| Nc1ccc(-c2cc(N3CCCc4ccccc43)nc(N3CCOCC3)n2)cn1 [Compound 382] | – | < 1000 nM | – |
| CN(C)c1cc(-c2ccc(N)nc2)nc(N2CCOCC2)n1 [Compound 370] | – | < 10000 nM | – |
| COc1ccc(Nc2cc(-c3ccc(N)nc3)nc(N3CCOCC3)n2)cc1OC [Compound 388] | – | < 1000 nM | – |
| CS(=O)(=O)c1cccc(-c2cc(-c3cnc(N)cc3-c3nn[nH]n3)nc(N3CCOCC3)n2)c1 [Compound 414] | < 1000 nM | – | – |
| Nc1ccc(-c2cc(Nc3ccccc3C(F)(F)F)nc(N3CCOCC3)n2)cn1 [Compound 379] | – | < 1000 nM | – |
| Nc1cc(C(F)(F)F)c(-c2cc(N3CCN(c4ccccc4)C(=O)C3)nc(N3CCOCC3)n2)cn1 [Compound 416] | < 1000 nM | – | – |
| Nc1ccc(-c2cc(Nc3cccc4cn[nH]c34)nc(N3CCOCC3)n2)cn1 [Compound 346] | – | < 1000 nM | – |
| Nc1ccc(-c2cc(NC3CCOCC3)nc(N3CCOCC3)n2)cn1 [Compound 374] | – | < 10000 nM | – |
| Nc1cc(C(F)(F)F)c(-c2cc(Nc3cc(C(F)(F)F)ccn3)nc(N3CCOCC3)n2)cn1 [Compound 243] | – | < 1000 nM | – |
| Nc1ccc(-c2cc(N3CCOC(C(=O)O)C3)nc(N3CCOCC3)n2)cn1 (stereo not drawn) [Compound 339] | – | < 10000 nM | – |

The next lines start with results.

| IC50 [1] | IC50 ([1]; Biological Method 1) | SMILES | further results |
| --- | --- | --- | --- |
| < 1000 nM | – | Nc1ccc(-c2cc(-c3cccnc3F)nc(N3CCOCC3)n2)cn1 [Compound 508] | EC50 ([2]; ovarian cancer cell line A2780): < 10000 nM |
| < 1000 nM | – | Nc1cc(C(F)(F)F)c(-c2cc(-c3ccccc3S(N)(=O)=O)nc(N3CCOCC3)n2)cn1 [Compound 543] | EC50 ([2]; ovarian cancer cell line A2780): < 10000 nM |
| < 1000 nM | – | Cc1c(-c2cnc(N)nc2)nc(N2CCOCC2)nc1-c1cccc(S(C)(=O)=O)c1 [Compound 548] | EC50 ([2]; ovarian cancer cell line A2780): < 10000 nM |
| < 1000 nM | – | N#Cc1cccc(Nc2cc(-c3ccc(N)nc3)nc(N3CCOCC3)n2)c1 [Compound 437] | EC50 ([2]; ovarian cancer cell line A2780): < 10000 nM |
| < 1000 nM | – | Nc1ncc(-c2ccnc(N3CCOCC3)n2)c(=O)[nH]1 [Compound 462] | EC50 ([2]; ovarian cancer cell line A2780): < 10000 nM |
| < 1000 nM | – | N#Cc1cc(-c2cnc(N)nc2C(F)(F)F)nc(N2CCOCC2)n1 [Compound 465] | EC50 ([2]; ovarian cancer cell line A2780): < 10000 nM |
| < 10000 nM | – | Nc1ccc(-c2cc(-c3cccnc3N3CCN(CCO)CC3)nc(N3CCOCC3)n2)cn1 [Compound 498] | – |
| < 10000 nM | – | Nc1ncc(-c2nc(N3CCOCC3)ncc2C(=O)NCC2CCCO2)cn1 (stereo not drawn) [Compound 421] | – |
| < 10000 nM | – | Nc1ncc(-c2nc(N3CCOCC3)ncc2C(=O)NC2CCOCC2)cn1 [Compound 426] | – |
| < 1000 nM | – | Nc1ccc(-c2cc(C(F)(F)F)nc(N3CCOCC3)n2)cn1 [Compound 471] | – |
| < 1000 nM | – | Nc1ncc(-c2cc(O[C@@H]3CCCN(C(=O)c4ccc(F)cc4)C3)nc(N3CCOCC3)n2)c(N)n1 [Compound 525] | – |
| < 10000 nM | – | Nc1ncc(-c2nc(N3CCOCC3)ncc2C(=O)N2CCOCC2)cn1 [Compound 429] | – |
| < 1000 nM | – | Nc1cc(C(F)(F)F)c(-c2cc(N3CCOCC3c3ccccc3)nc(N3CCOCC3)n2)cn1 (stereo not drawn) [Compound 486] | – |
| < 1000 nM | – | Nc1cc(C(F)(F)F)c(-c2cc(O[C@@H]3CCN(C(=O)OCc4ccccc4)C3)nc(N3CCOCC3)n2)cn1 [Compound 535] | – |
| < 10000 nM | – | Nc1ncc(-c2nc(N3CCOCC3)ncc2C(=O)N2CCCC2)cn1 [Compound 425] | – |
| < 10000 nM | – | CS(=O)(=O)Nc1cc(-c2ccc(N)nc2)nc(N2CCOCC2)n1 [Compound 510] | – |
| < 1000 nM | – | Nc1ccc(-c2cc(Nc3cnc4c(Cl)ccc(OCCN5CCCC5=O)c4c3)nc(N3CCOCC3)n2)cn1 [Compound 493] | – |
| < 1000 nM | – | Cc1nc(N)ncc1-c1cc(Cl)nc(N2CCOCC2)n1 [Compound 479] | – |
| < 10000 nM | – | Nc1ccc(-c2cc(NCCc3cccnc3)nc(N3CCOCC3)n2)cn1 [Compound 434] | – |
| < 10000 nM | – | CN(C)CCNC(=O)c1cnc(N2CCOCC2)nc1-c1cnc(N)nc1 [Compound 420] | – |
